Results as given in US20120058172A1, “PLANT EXTRACTS FOR USE IN BRAIN MODULATION” (Intermed Discovery GmbH, priority 2006, published 2012).

Test system: mouse
Assay: Marble burying test in the mouse
Format: in vivo
Conditions: for Number of marbles covered by sawdust, mean ± s.e.m.: 15 mice per group
Excerpt: More preferably, psychotropic activity can be tested using the Marble Burying Test in the mouse. The method, which detects anxiolytic/tranquillizing activity, follows that described by Broekkamp et al (Eur. J. Pharmacol., 126, 223-229, 1986). The principle of the test is that mice exposed to novel objects (marbles) will bury them in the sawdust floor covering. Anxiolytics decrease the number of marbles buried at non-sedative doses. For the experiment, mice (Male Rj: NMRI mice, weighing 20-30 g (max. range per experiment=5 g) at the beginning of the experiments, obtained from Elevage Janvier, 53940 Le Genest-Saint-Isle, France) are individually placed in transparent plastic cages (33×21×18 cm) with 5 cm of sawdust on the floor. 25 marbles are grouped in the centre of the cage. The cage is covered with an inverted plastic cage. Each test cage, together with the marbles, is impregnated with mouse odor before-hand by leaving 10 mice in the cage for 15 minutes. These mice then play no further role in the experiment. The mice are treated with test substance intraperitoneally (i.p.) 30 min before the test. Administration volume: 10 ml/kg, different dosages are tested (e.g. 2 or more dosages selected from 1, 3, 10, 30 and 100 mg/kg). The test substance is tested for solubility by cold stirring of the highest intended dose for 10 minutes in physiological saline. If soluble, physiological saline serves as vehicle. If insoluble, the test substance is homogenized and dispersed using a mortar and a pestle in 0.2% hydroxypropylmethylcellulose (HPMC) in physiological saline which then serves as the vehicle. Unless indicated otherwise, doses are prepared W/V (stock) and then V/V (serial dilutions) for test substances in solution, and by separate weighings (W/V) for test substances in suspension. Preparations are made freshly for each day of administration and precautions are taken to preserve the homogeneity of suspensions (if applicable) during the period of administration. As control, vehicle is administered. The number of marbles covered by sawdust (2/3 or more) is then counted at the end of a 30 minute test. 15 mice are studied per group. The test is performed blind. Each test substance is evaluated at 3 doses, administered i.p. 30 minutes before the test, and compared with a vehicle control group. Fluoxetine (32 mg/kg i.p.), administered under the same experimental conditions, is used as reference substance. Each experiment therefore includes 5 groups. Data are analyzed by comparing treated groups with vehicle control using unpaired Student's t tests, using commercial software (Microsoft Excel®, SAS® Version 8.2, GB Stat® Version 6.5). With this test system, with compounds of the formula I a decrease of the number of marbles buried and thus an anxiolytic effect can be found, preferably a significant effect (p<0.01) by an i.p. dosage in the range from 1 to 100 mg/kg.
The test is performed as described above.

Structure (SMILES)	Number of marbles covered by sawdust, % change from control (Vehicle) (32 mg/kg i.p. −30 min) [%]	Number of marbles covered by sawdust, mean ± s.e.m. (32 mg/kg i.p. −30 min)	Number of marbles covered by sawdust, % change from control (Vehicle) (1 mg/kg i.p. −30 min) [%]	Number of marbles covered by sawdust, mean ± s.e.m. (1 mg/kg i.p. −30 min) [NS]	Number of marbles covered by sawdust, % change from control (Vehicle) (3 mg/kg i.p. −30 min) [%]	Number of marbles covered by sawdust, mean ± s.e.m. (3 mg/kg i.p. −30 min) [NS]	Number of marbles covered by sawdust, % change from control (Vehicle) (10 mg/kg i.p. −30 min) [%]	Number of marbles covered by sawdust, mean ± s.e.m. (10 mg/kg i.p. −30 min)
CNCCC(Oc1ccc(C(F)(F)F)cc1)c1ccccc1 (centres unmarked) [FLUOXETINE, Fluoxetine, reference compound]	−100	0.0 ± 0.0	–	–	–	–	–	–
CC(C)C[C@@H](c1c(O)c(C=O)c(O)c(C=O)c1O)[C@@]1(C)CC[C@@H]2[C@@H]1[C@H]1[C@@H](CC[C@@]2(C)O)C1(C)C [Macrocarpale A, Macrocarpal A]	–	–	−5	15.7 ± 2.5	−37	10.4 ± 2.3	−53	7.7 ± 2.4
